Earlier results as cited in patent US20260199259A1, “CONTROLLED LIPID SELF-ASSEMBLY FOR SCALABLE MANUFACTURING OF NEXTGENERATION IMMUNE STIMULATING COMPLEXES” (MASSACHUSETTS INSTITUTE OF TECHNOLOGY, priority 2022, published 2026).

How the values were obtained:
[1] = tested on: chick embryo eggs; settings: measured by lethal dose in chick embryo eggs

Row | Substance | factor of toxicity reduction relative to LPS [1] | micelle size (aqueous solutions) | solubility (in PBS)
1 | 4′-monophosporyl lipid A [MPLA] | more than 1000 |  | 
2 | QS-21 |  | ~ 7 nm | up to 30 mg/mL
